Assays:
[1] = test system: rice; assay: Test B flooded paddy test; assay type: in vivo, Oryza sativa; settings: 1000 g ai/ha, visual rating, scale 0 to 100 (0 no effect, 100 complete control), 13 to 15 days
Summary of the method: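 Plants grow to 1- to 4-leaf stage (2–18 cm) for postemergence spraying, or to 2-leaf stage for the paddy test. Formulated compound is applied. Greenhouse holding lasts 13–15 days. Response is scored visually relative to controls, 0 no effect to 100 complete control; a dash means no result.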

[2] = test system: cocklebur; assay: Test C pre-/postemergence herbicide test; assay type: in vivo, Xanthium strumarium; settings: for Plant response rating (0 = no effect, 100 = complete control), Cocklebur: 62 g ai/ha; for Plant response rating (0 = no effect, 100 = complete control), Cocklebur / Plant response rating, Cocklebur: preemergence; for Cocklebur plant response rating: Preemergence, 500 g ai/ha, scale 0 to 100, 0 no effect, 100 complete control
Summary of the method: (§1)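 Visual injury scores run from 0 (no effect) to 100 (complete control), assessed relative to untreated controls 12 to 14 days after treatment in the greenhouse. Chemicals were formulated in a non-phytotoxic solvent mixture with surfactant and applied to soil after planting or to emerged plants at the 1- to 4-leaf stage.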

[3] = test system: corn; assay: Test C pre-/postemergence herbicide test; assay type: in vivo, Zea mays; settings: for Plant response rating (0 = no effect, 100 = complete control), Corn: 62 g ai/ha; for Plant response rating (0 = no effect, 100 = complete control), Corn / Plant response rating, Corn: preemergence; for Corn plant response rating: Preemergence, 500 g ai/ha, scale 0 to 100, 0 no effect, 100 complete control
Summary of the method: as §1

[4] = test system: lambsquarters; assay: Test C pre-/postemergence herbicide test; assay type: in vivo, Chenopodium album; settings: for Plant response rating (0 = no effect, 100 = complete control), Lambsquarters: 62 g ai/ha; for Plant response rating (0 = no effect, 100 = complete control), Lambsquarters / Plant response rating, Lambsquarters: preemergence; for Lambsquarters plant response rating: Preemergence, 500 g ai/ha, scale 0 to 100, 0 no effect, 100 complete control
Summary of the method: as §1

[5] = test system: eastern black nightshade; assay: Test C pre-/postemergence herbicide test; assay type: in vivo, Solanum ptycanthum; settings: for Plant response rating (0 = no effect, 100 = complete control), Nightshade: 62 g ai/ha; for Plant response rating (0 = no effect, 100 = complete control), Nightshade / Plant response rating, Nightshade: preemergence; for Nightshade plant response rating: Preemergence, 500 g ai/ha, scale 0 to 100, 0 no effect, 100 complete control
Summary of the method: as §1

[6] = test system: johnsongrass; assay: Test C pre-/postemergence herbicide test; assay type: in vivo, Sorghum halepense; settings: for Plant response rating (0 = no effect, 100 = complete control), Johnsongrass: 62 g ai/ha; for Plant response rating (0 = no effect, 100 = complete control), Johnsongrass / Plant response rating, Johnsongrass: preemergence; for Johnsongrass plant response rating: Preemergence, 500 g ai/ha, scale 0 to 100, 0 no effect, 100 complete control
Summary of the method: as §1

[7] = test system: ducksalad; assay: Test B flooded paddy test; assay type: in vivo, Heteranthera limosa; settings: 1000 g ai/ha, visual rating, scale 0 to 100 (0 no effect, 100 complete control), 13 to 15 days
Summary of the method: (§2)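 Paddy species grown to the 2-leaf stage under flooding; blackgrass sprayed postemergence at 2–18 cm (1- to 4-leaf stage). Plants kept in a greenhouse for 13 to 15 days, then visually rated against controls on 0 (no effect) to 100 (complete control).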

[8] = test system: ducksalad; assay: Test C flooded paddy test; assay type: in vivo, Heteranthera limosa; settings: for Plant response rating, Ducksalad: 500 g ai/ha, visual rating after 12 to 14 days
[9] = test system: goosegrass; assay: Test C pre-/postemergence herbicide test; assay type: in vivo, Eleusine indica; settings: for Plant response rating (0 = no effect, 100 = complete control), Goosegrass: 62 g ai/ha; for Plant response rating (0 = no effect, 100 = complete control), Goosegrass / Plant response rating, Goosegrass: preemergence; for Goosegrass plant response rating: Preemergence, 500 g ai/ha, scale 0 to 100, 0 no effect, 100 complete control
Summary of the method: as §1

[10] = test system: barnyardgrass; assay: Test B flooded paddy test; assay type: in vivo, Echinochloa crus-galli; settings: 1000 g ai/ha, visual rating, scale 0 to 100 (0 no effect, 100 complete control), 13 to 15 days
Summary of the method: as §2

[11] = test system: velvetleaf; assay: Test C pre-/postemergence herbicide test; assay type: in vivo, Abutilon theophrasti; settings: for Velvetleaf plant response rating: Preemergence, 500 g ai/ha, scale 0 to 100, 0 no effect, 100 complete control
Summary of the method: as §1

[12] = test system: smallflower umbrella sedge; assay: Test C flooded paddy test; assay type: in vivo, Cyperus difformis; settings: for Plant response rating, Sedge, Umbrella: 500 g ai/ha, visual rating after 12 to 14 days
[13] = 125 g ai/ha, scale 0 (no effect) to 100 (complete control), visual, 12 to 14 days
[14] = 250 g ai/ha, scale 0 to 100 (0 no effect, 100 complete control), visual, 12 to 14 days
[15] = 62 g ai/ha, scale 0 to 100 (0 no effect, 100 complete control)
[16] = 125 g ai/ha, scale of 0 to 100, 0 is no effect, 100 is complete control
[17] = 250 g ai/ha, scale of 0 to 100, 0 is no effect, 100 is complete control
[18] = scale 0 to 100 (0 no effect, 100 complete control)
[19] = 125 g ai/ha, scale 0 (no effect) to 100 (complete control), visual, 12 to 14 days, preemergence
[20] = 250 g ai/ha, scale 0 to 100 (0 no effect, 100 complete control), visual, 12 to 14 days, preemergence

| Compound | Rice plant response rating [1] | Plant response rating (0 = no effect, 100 = complete control), Cocklebur [2] | Plant response rating, Cocklebur [2, 13] | Plant response rating (0 = no effect, 100 = complete control), Corn [3] | Plant response rating, Corn [3, 13] | Plant response rating, Corn [3, 14] | Plant response rating (0 = no effect, 100 = complete control), Lambsquarters [4] | Plant response rating, Lambsquarters [4, 13] | Plant response rating, Lambsquarters [4, 14] | Plant response rating (0 = no effect, 100 = complete control), Nightshade [5] | Plant response rating, Nightshade [5, 13] | Plant response rating, Nightshade [5, 14] | Plant response rating (0 = no effect, 100 = complete control), Johnsongrass [6] | Plant response rating, Johnsongrass [6, 13] | Plant response rating, Johnsongrass [6, 14] | Ducksalad plant response rating [7] | Ducksalad plant response rating [8, 15] | Ducksalad plant response rating [8, 16] | Ducksalad plant response rating [8, 17] | Plant response rating, Ducksalad [8, 18] | further results |
| --- | --- | --- | --- | --- | --- | --- | --- | --- | --- | --- | --- | --- | --- | --- | --- | --- | --- | --- | --- | --- | --- |
| C=CCn1nc(C(C)(C)C)cc1C(=O)Nc1cccc(C(=O)NCC)c1 [Compound 56] | 70 | 0 | 0 | 0 | 0 | 0 | 85 | 100 | 100 | 90 | 95 | 95 | 55 | 70 | 85 | 80 | 15 | 55 | 70 | 75 | Cocklebur plant response rating [2]: 0; Corn plant response rating [3]: 0; Lambsquarters plant response rating [4]: 100; Nightshade plant response rating [5]: 95; Johnsongrass plant response rating [6]: 90; Plant response rating (0 = no effect, 100 = complete control), Goosegrass [9]: 60; Plant response rating, Goosegrass [9, 13]: 85; Plant response rating, Goosegrass [9, 14]: 90; Goosegrass plant response rating [9]: 95; Barnyardgrass plant response rating [10]: 80; Plant response rating (0 = no effect, 100 = complete control), Velvetleaf ([11]; 62 g ai/ha, preemergence): 20; Plant response rating, Velvetleaf [11, 19]: 35; Plant response rating, Velvetleaf [11, 20]: 50; Velvetleaf plant response rating [11]: 100; Sedge, Umbrella plant response rating [12, 15]: 45; Sedge, Umbrella plant response rating [12, 16]: 85; Sedge, Umbrella plant response rating [12, 17]: 90; Plant response rating, Sedge, Umbrella [12, 18]: 90 |
| CCn1nc(C(C)(C)C)cc1C(=O)Nc1cccc(C(=O)NCC2CC2)c1 [Compound 62] | 30 | 0 | 0 | 0 | 0 | 0 | 100 | 100 | 100 | 80 | 90 | 95 | 40 | 40 | 70 | 80 | 25 | 35 | 90 | 90 | Plant response rating, Cocklebur ([2]; 31 g ai/ha, scale 0 to 100): 0; Plant response rating, Cocklebur [2, 14]: 0; Plant response rating, Corn ([3]; 31 g ai/ha, scale 0 to 100): 0; Plant response rating, Lambsquarters ([4]; 31 g ai/ha, scale 0 to 100): 100; Plant response rating, Nightshade ([5]; 31 g ai/ha, scale 0 to 100): 80; Plant response rating, Johnsongrass ([6]; 31 g ai/ha, scale 0 to 100): 0; Plant response rating, Goosegrass ([9]; 31 g ai/ha, scale 0 to 100): 0; Plant response rating (0 = no effect, 100 = complete control), Goosegrass [9]: 10; Plant response rating, Goosegrass [9, 13]: 70; Plant response rating, Goosegrass [9, 14]: 85; Barnyardgrass plant response rating [10]: 70; Plant response rating, Velvetleaf ([11]; 31 g ai/ha, preemergence, scale 0 to 100): 0; Plant response rating, Velvetleaf [11, 20]: 70; Sedge, Umbrella plant response rating [12, 15]: 45; Sedge, Umbrella plant response rating [12, 16]: 60; Sedge, Umbrella plant response rating [12, 17]: 80; Plant response rating, Sedge, Umbrella [12, 18]: 85 |
| CCN1CCc2c(NC(=O)c3cc(C(C)(C)C)nn3CC)cccc2C1=O [Compound 63] | 60 | 0 | 0 | 0 | 0 | 5 | 30 | 95 | 100 | 70 | 90 | 95 | 30 | 60 | 75 | 90 | 0 | 50 | 70 | 85 | Plant response rating, Cocklebur [2, 14]: 0; Cocklebur plant response rating [2]: 0; Corn plant response rating [3]: 30; Lambsquarters plant response rating [4]: 100; Nightshade plant response rating [5]: 95; Johnsongrass plant response rating [6]: 100; Plant response rating (0 = no effect, 100 = complete control), Goosegrass [9]: 10; Plant response rating, Goosegrass [9, 13]: 45; Plant response rating, Goosegrass [9, 14]: 60; Goosegrass plant response rating [9]: 90; Barnyardgrass plant response rating [10]: 80; Plant response rating, Velvetleaf [11, 19]: 10; Plant response rating, Velvetleaf [11, 20]: 30; Velvetleaf plant response rating [11]: 100; Sedge, Umbrella plant response rating [12, 15]: 0; Sedge, Umbrella plant response rating [12, 16]: 70; Sedge, Umbrella plant response rating [12, 17]: 80; Plant response rating, Sedge, Umbrella [12, 18]: 90 |

Reference: patent US20060069132A1, “Azolecarboxamide herbicides” (priority 2004, published 2006)
